In the supplement of paper PMC10307832:

What was measured:
Assay in all cases: relative viability (nuclei count vs DMSO), 5 days (fraction); higher = more cells survive
Palbociclib + Trametinib = compound: CC(=O)c1c(C)c2cnc(Nc3ccc(N4CCNCC4)cn3)nc2n(C2CCCC2)c1=O [Palbociclib] + CC(=O)Nc1cccc(-n2c(=O)n(C3CC3)c(=O)c3c(Nc4ccc(I)cc4F)n(C)c(=O)c(C)c32)c1 [Trametinib] (partner 0.02 µM)
How it was run: (§1)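 Relative viability equals treated-well nuclei counts divided by vehicle-well nuclei counts. Counts came from 4× images of lung cancer cell lines grown in 1536-well plates for 5 days after pin-tool dosing on the day after seeding. Dosing used one drug alone or a fixed anchor-drug dose plus five library-drug doses (not always all listed) in √10 steps, and values are medians of duplicate plates.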

Palbociclib + Luminespib = compound: CC(=O)c1c(C)c2cnc(Nc3ccc(N4CCNCC4)cn3)nc2n(C2CCCC2)c1=O [Palbociclib] + CCNC(=O)c1noc(-c2cc(C(C)C)c(O)cc2O)c1-c1ccc(CN2CCOCC2)cc1 [Luminespib] (partner 0.01 µM)
How it was run: as §1

Palbociclib + OSI-027 = compound: CC(=O)c1c(C)c2cnc(Nc3ccc(N4CCNCC4)cn3)nc2n(C2CCCC2)c1=O [Palbociclib] + COc1cccc2cc(-c3nc([C@H]4CC[C@H](C(=O)O)CC4)n4ncnc(N)c34)[nH]c12 [OSI-027] (partner 0.5 µM)
How it was run: as §1

Palbociclib + AZD7762 = compound: CC(=O)c1c(C)c2cnc(Nc3ccc(N4CCNCC4)cn3)nc2n(C2CCCC2)c1=O [Palbociclib] + NC(=O)Nc1cc(-c2cccc(F)c2)sc1C(=O)N[C@H]1CCCNC1 [AZD7762] (partner 0.2 µM)
How it was run: as §1

Row | Cell Line | relative viability (Palbociclib + Trametinib; first compound 0.01 µM) | relative viability (Palbociclib + Trametinib; first compound 0.03162 µM) | relative viability (Palbociclib + Trametinib; first compound 0.1 µM) | relative viability (Palbociclib + Trametinib; first compound 0.3162 µM) | relative viability (Palbociclib + Trametinib; first compound 1 µM) | relative viability (Palbociclib + Luminespib; first compound 0.01 µM) | relative viability (Palbociclib + Luminespib; first compound 0.03162 µM) | relative viability (Palbociclib + Luminespib; first compound 0.1 µM) | relative viability (Palbociclib + Luminespib; first compound 0.3162 µM) | relative viability (Palbociclib + Luminespib; first compound 1 µM) | relative viability (Palbociclib + OSI-027; first compound 0.01 µM) | relative viability (Palbociclib + OSI-027; first compound 0.03162 µM) | relative viability (Palbociclib + OSI-027; first compound 0.1 µM) | relative viability (Palbociclib + OSI-027; first compound 0.3162 µM) | relative viability (Palbociclib + OSI-027; first compound 1 µM) | relative viability (Palbociclib + AZD7762; first compound 0.01 µM) | relative viability (Palbociclib + AZD7762; first compound 0.03162 µM) | relative viability (Palbociclib + AZD7762; first compound 0.1 µM) | relative viability (Palbociclib + AZD7762; first compound 0.3162 µM) | relative viability (Palbociclib + AZD7762; first compound 1 µM)
1 | NCI-H1395 | 1.08 | 0.884 | 0.816 | 0.854 | 0.731 | 0.661 | 0.561 | 0.631 | 0.668 | 0.587 | 0.64 | 0.55 | 0.536 | 0.54 | 0.415 | 0.428 | 0.406 | 0.406 | 0.453 | 0.407
2 | NCI-H1437 | 0.553 | 0.522 | 0.456 | 0.332 | 0.293 | 1.16 | 1.07 | 0.961 | 0.89 | 0.666 | 0.747 | 0.734 | 0.711 | 0.65 | 0.291 | 1.15 | 1.09 | 1.03 | 1.09 | 0.73
3 | NCI-H1651 | 0.841 | 0.798 | 0.743 | 0.803 | 0.714 | 0.872 | 0.814 | 0.774 | 0.791 | 0.677 | 0.663 | 0.639 | 0.706 | 0.663 | 0.334 | 0.484 | 0.394 | 0.474 | 0.464 | 0.425
4 | NCI-H1666 | 0.862 | 0.704 | 0.784 | 0.727 | 0.728 | 0.969 | 0.886 | 0.824 | 0.754 | 0.542 | 0.831 | 0.672 | 0.682 | 0.747 | 0.471 | 0.881 | 0.58 | 0.842 | 0.74 | 0.684
5 | NCI-H1734 | 0.617 | 0.6 | 0.581 | 0.56 | 0.481 | 0.251 | 0.182 | 0.193 | 0.197 | 0.17 | 0.684 | 0.42 | 0.466 | 0.413 | 0.329 | 0.53 | 0.417 | 0.454 | 0.453 | 0.356
6 | NCI-H1755 | 0.804 | 0.746 | 0.688 | 0.719 | 0.597 | 0.266 | 0.297 | 0.451 | 0.479 | 0.284 | 0.677 | 0.496 | 0.555 | 0.633 | 0.391 | 0.476 | 0.402 | 0.436 | 0.451 | 0.421
7 | NCI-H1792 | 0.501 | 0.376 | 0.323 | 0.338 | 0.213 | 0.558 | 0.498 | 0.288 | 0.327 | 0.371 | 0.821 | 0.688 | 0.649 | 0.537 | 0.485 | 0.663 | 0.559 | 0.462 | 0.576 | 0.185
8 | NCI-H1793 | 0.438 | 0.431 | 0.44 | 0.322 | 0.281 | 0.17 | – | 0.243 | 0.193 | 0.2 | 0.262 | – | 0.238 | 0.223 | 0.186 | 0.518 | 0.393 | 0.549 | 0.528 | 0.277
9 | NCI-H1915 | 0.29 | – | 0.297 | 0.289 | 0.245 | 0.807 | 0.674 | 0.793 | 0.71 | 0.629 | 0.628 | 0.426 | 0.511 | 0.513 | 0.407 | 0.685 | – | 0.718 | 0.649 | 0.608
10 | NCI-H1944 | 0.399 | 0.389 | 0.396 | 0.37 | 0.342 | 0.683 | 0.742 | 0.626 | 0.666 | 0.516 | 0.461 | 0.336 | 0.335 | 0.325 | 0.213 | 0.557 | 0.44 | 0.504 | 0.428 | 0.375
11 | NCI-H1975 | 0.402 | 0.372 | 0.309 | 0.353 | 0.236 | 0.161 | 0.189 | 0.102 | 0.198 | 0.193 | 0.809 | 0.673 | 0.665 | 0.685 | 0.518 | 0.715 | 0.772 | 0.609 | 0.659 | 0.531
12 | NCI-H1993 | 0.564 | 0.612 | 0.418 | 0.332 | 0.514 | 0.8 | 0.781 | 0.762 | 0.671 | 0.888 | 0.533 | 0.505 | 0.513 | 0.524 | 0.509 | 0.748 | 0.646 | 0.575 | 0.632 | 0.528
13 | NCI-H2085 | 0.529 | 0.516 | 0.588 | 0.482 | 0.34 | 0.426 | 0.332 | 0.376 | 0.412 | 0.327 | 0.658 | 0.55 | 0.547 | 0.574 | 0.369 | 1.06 | 0.912 | 0.942 | 0.76 | 0.473
14 | NCI-H2087 | 0.236 | 0.191 | 0.161 | 0.15 | 0.187 | 0.175 | – | 0.137 | 0.235 | 0.203 | 0.433 | – | 0.361 | 0.278 | 0.25 | 1.18 | 1.16 | 1.03 | 0.902 | 0.641
15 | NCI-H2126 | 0.575 | 0.528 | 0.518 | 0.509 | 0.431 | 0.869 | 0.79 | 0.564 | 0.535 | 0.369 | 0.694 | 0.53 | 0.443 | 0.441 | 0.378 | 0.937 | 0.848 | 0.8 | 0.732 | 0.584
16 | NCI-H2170 | 0.968 | 0.838 | 0.889 | 0.882 | 0.721 | 0.536 | 0.536 | 0.558 | 0.707 | 0.536 | 0.72 | 0.642 | 0.61 | 0.638 | 0.407 | 0.925 | 0.736 | 0.875 | 0.773 | 0.514
